Measurements: article PMC9779606, “Synthesis, Structural Characterization and Biological Activity Evaluation of Novel Cu(II) Complexes with 3-(trifluoromethyl)phenylthiourea Derivatives” (International Journal of Molecular Sciences, 2022)
Read-outs that look alike come from different tables or passages of the source.

Columns and labels:
S. aureus 514 = test: MIC, hospital methicillin-resistant strains (MRSA); conditions: hospital MRSA strain S. aureus 514
S. aureus 522 = test: MIC, hospital methicillin-resistant strains (MRSA); conditions: hospital MRSA strain S. aureus 522
S. epidermidis 431 = test: MIC, hospital methicillin-resistant strains (MRSE); conditions: hospital MRSE strain S. epidermidis 431
S. aureus ATCC 29213 = test: MIC, twofold serial microdilution, standard strains; conditions: S. aureus ATCC 29213, standard strain
S. aureus ATCC 6538 = test: as above; conditions: S. aureus ATCC 6538, standard strain
[1] = system: SW480 (primary colon cancer); test: Cytotoxicity, MTT assay; assay type: cell-based, human; conditions: 72 h, mean SD
Experimental: (§1) MTT assay was performed as previously described. Experiments were repeated three times. […] Decreased relative MTT level means decreased cell viability.

[2] = system: PC3 (metastatic prostate cancer); test: Cytotoxicity, MTT assay; assay type: cell-based, human; conditions: 72 h, mean SD
Experimental: as §1

[3] = system: SW620 (metastatic colon cancer); test: Cytotoxicity, MTT assay; assay type: cell-based, human; conditions: 72 h, mean SD
Experimental: as §1

S. aureus 495 = test: MIC, hospital methicillin-resistant strains (MRSA); conditions: hospital MRSA strain S. aureus 495
S. aureus 568 = test: MIC, hospital methicillin-resistant strains (MRSA); conditions: hospital MRSA strain S. aureus 568
S. aureus 537 = test: MIC, hospital methicillin-resistant strains (MRSA); conditions: hospital MRSA strain S. aureus 537
[4] = system: S. epidermidis ATCC 35984; test: MIC, twofold serial microdilution, standard strains; conditions: S. epidermidis ATCC 35984, standard strain
S. epidermidis 438 = test: MIC, hospital methicillin-resistant strains (MRSE); conditions: hospital MRSE strain S. epidermidis 438
S. epidermidis 437 = test: MIC, hospital methicillin-resistant strains (MRSE); conditions: hospital MRSE strain S. epidermidis 437
S. aureus ATCC 25923 = test: MIC, twofold serial microdilution, standard strains; conditions: S. aureus ATCC 25923, standard strain
S. epidermidis 471 = test: MIC, hospital methicillin-resistant strains (MRSE); conditions: hospital MRSE strain S. epidermidis 471
[5] = system: methicillin-resistant Staphylococci (MRSA, MRSE); conditions: for MIC level against hospital staphylococcal strains: all hospital staphylococcal strains, Table 5
S. epidermidis 424 = test: MIC, hospital methicillin-resistant strains (MRSE); conditions: hospital MRSE strain S. epidermidis 424
[6] = system: Bacillus subtilis H17 (rec+); conditions: B. subtilis H17 (rec+); 256 µg per 9 mm disc (NOQ 2 µg per disc)
Experimental: (§2) DNA-damaging activity of compounds was tested by rec-assay using two genetically modified Bacillus subtilis strains: M45 (rec^−) and H17 (rec^+). Tested compounds were dissolved in DMSO, and 10 µL of each solution was dripped onto sterile cotton discs (Rotilabo) to load 256 µg of a given compound per 9 mm disc. Discs were placed on the surface Nutrient agar plates (Difco) inoculated with 100 µL of bacterial overnight culture and incubated for 24 h at 35 °C. After incubation, the growth inhibition zones were measured. […] Results of the genotoxicity test were estimated after 18 h of incubation at 35 °C by comparing the diameter of the inhibition zone on the B. subtilis M45 (rec^−) strain with that on the B. subtilis H17 (rec^+) strain.

[7] = system: Bacillus subtilis M45 (rec−); conditions: B. subtilis M45 (rec−); 256 µg per 9 mm disc (NOQ 2 µg per disc)
Experimental: as §2

E. coli ATCC 25922 = test: MIC, twofold serial microdilution, standard strains; conditions: E. coli ATCC 25922, standard strain
S. epidermidis 423 = test: MIC, hospital methicillin-resistant strains (MRSE); conditions: hospital MRSE strain S. epidermidis 423
staphylococcal isolates = test: MIC, standard staphylococcal strains; conditions: text summary of Table 4
[8] = molecular target: T1, S. aureus topoisomerase IV (Staphylococcus aureus, UniProt P0C1S7+P0C1U9); test: S. aureus topoisomerase IV decatenation assay; assay type: biochemical; conditions: kDNA decatenation, 30 min at 37 °C
T1 construct: purchased Inspiralis, Norwich, UK
Experimental: The assay was performed using a S. aureus topoisomerase IV decantation kit (Inspiralis, Norwich, UK). Kinetoplast DNA (kDNA) was the substrate for topoisomerase IV. Firstly, 1 U of topoisomerase IV decatenated 200 ng of kDNA, in the dedicated decantation assay buffer supplied by the manufacturer. […] The reactions were terminated by adding an equal volume of STEB buffer (40% sucrose, 100 mM Tris-HCl pH 8, 1 mM EDTA, 0.5 mg/mL bromophenol blue), followed by extraction with 1 volume of chloroform/isoamyl alcohol (24:1). Then, 20 µL of the aqueous phase of each sample was loaded onto a 1% agarose gel. Electrophoresis was conducted in Tris-acetate-EDTA buffer for 1.5 h at 80 V. Gels were stained with ethidium bromide and visualized under UV light in a transilluminator (ChemiDoc MP, Bio-Rad, Hercules, CA, USA).

S. aureus DNA gyrase = molecular target: T2, S. aureus DNA gyrase (Staphylococcus aureus, UniProt P0A0K8+P20831); test: S. aureus DNA gyrase supercoiling assay; assay type: biochemical; conditions: pBR322 supercoiling, 30 min at 37 °C
T2 construct: purchased Inspiralis, Norwich, UK
Experimental: The assay was performed using a S. aureus DNA Gyrase Supercoiling kit (Inspiralis, Norwich, UK). The activity of DNA topoisomerase II was determined by measuring the conversion of relaxed pBR322 DNA to its supercoiled form. The reaction mixture contained 500 ng of mMpBR322 plasmid DNA and 1 U of enzyme and different concentrations of the compound in a total reaction volume of 30 µL. The mixture was incubated for 30 min at 37 °C. The reactions were terminated by adding an equal volume of STEB buffer (40% sucrose, 100 mM Tris-HCl pH 8, 1 mM EDTA, 0.5 mg/mL bromophenol blue), followed by extraction with 1 volume of chloroform/isoamyl alcohol (24:1). Then, 20 µL of the aqueous phase of each sample was loaded onto a 1% agarose gel. Electrophoresis was conducted in Tris-acetate-EDTA buffer for 3 h at 50 V. Gels were stained with ethidium bromide and visualized under UV light in a transilluminator (ChemiDoc MP, Bio-Rad, Hercules, CA, USA).

SW480, SW620, and PC3 = test: Cytotoxicity, MTT assay, all cancer cell lines; assay type: cell-based, human; conditions: 72 h, read-out: IC50 towards all investigated cancer cells
Experimental: as §1

T1 sequence (P0C1S7 whole entry): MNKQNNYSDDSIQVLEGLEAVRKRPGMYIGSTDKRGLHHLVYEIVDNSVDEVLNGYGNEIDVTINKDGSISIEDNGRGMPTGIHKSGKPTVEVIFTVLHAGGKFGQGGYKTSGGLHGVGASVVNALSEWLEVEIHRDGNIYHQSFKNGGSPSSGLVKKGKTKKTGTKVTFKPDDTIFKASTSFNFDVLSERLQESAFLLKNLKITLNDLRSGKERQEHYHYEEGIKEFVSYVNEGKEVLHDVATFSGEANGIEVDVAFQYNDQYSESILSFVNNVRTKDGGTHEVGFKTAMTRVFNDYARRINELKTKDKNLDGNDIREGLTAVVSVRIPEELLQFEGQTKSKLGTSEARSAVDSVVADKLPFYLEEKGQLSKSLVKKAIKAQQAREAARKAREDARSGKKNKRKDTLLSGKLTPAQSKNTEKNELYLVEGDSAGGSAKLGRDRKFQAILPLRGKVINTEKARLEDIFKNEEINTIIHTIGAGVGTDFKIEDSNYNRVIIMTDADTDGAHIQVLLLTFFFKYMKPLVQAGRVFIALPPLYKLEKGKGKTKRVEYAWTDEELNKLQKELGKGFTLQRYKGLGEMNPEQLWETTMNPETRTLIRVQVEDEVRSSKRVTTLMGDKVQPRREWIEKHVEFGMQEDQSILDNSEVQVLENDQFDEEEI
T1 sequence (P0C1U9 whole entry): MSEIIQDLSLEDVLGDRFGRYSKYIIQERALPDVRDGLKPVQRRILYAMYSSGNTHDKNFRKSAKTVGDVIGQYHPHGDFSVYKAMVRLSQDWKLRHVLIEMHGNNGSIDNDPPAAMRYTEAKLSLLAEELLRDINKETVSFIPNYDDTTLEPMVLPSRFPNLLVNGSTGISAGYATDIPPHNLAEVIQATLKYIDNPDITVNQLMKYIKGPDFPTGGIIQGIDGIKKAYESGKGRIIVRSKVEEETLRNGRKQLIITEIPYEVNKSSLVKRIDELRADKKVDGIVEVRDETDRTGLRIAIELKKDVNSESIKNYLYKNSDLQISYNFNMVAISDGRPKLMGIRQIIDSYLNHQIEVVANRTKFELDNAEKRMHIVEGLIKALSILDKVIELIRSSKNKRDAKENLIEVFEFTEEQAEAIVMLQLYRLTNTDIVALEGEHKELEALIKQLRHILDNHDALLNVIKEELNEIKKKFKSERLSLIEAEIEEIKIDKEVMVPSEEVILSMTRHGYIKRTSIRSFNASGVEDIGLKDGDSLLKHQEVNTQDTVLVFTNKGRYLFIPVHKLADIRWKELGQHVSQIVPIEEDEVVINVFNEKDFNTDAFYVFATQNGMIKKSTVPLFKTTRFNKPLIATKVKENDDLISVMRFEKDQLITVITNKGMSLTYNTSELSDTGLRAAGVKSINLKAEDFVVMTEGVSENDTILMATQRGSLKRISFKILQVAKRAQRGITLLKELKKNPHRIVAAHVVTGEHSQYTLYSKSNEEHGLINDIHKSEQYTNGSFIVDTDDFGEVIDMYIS
T2 sequence (P20831 whole entry): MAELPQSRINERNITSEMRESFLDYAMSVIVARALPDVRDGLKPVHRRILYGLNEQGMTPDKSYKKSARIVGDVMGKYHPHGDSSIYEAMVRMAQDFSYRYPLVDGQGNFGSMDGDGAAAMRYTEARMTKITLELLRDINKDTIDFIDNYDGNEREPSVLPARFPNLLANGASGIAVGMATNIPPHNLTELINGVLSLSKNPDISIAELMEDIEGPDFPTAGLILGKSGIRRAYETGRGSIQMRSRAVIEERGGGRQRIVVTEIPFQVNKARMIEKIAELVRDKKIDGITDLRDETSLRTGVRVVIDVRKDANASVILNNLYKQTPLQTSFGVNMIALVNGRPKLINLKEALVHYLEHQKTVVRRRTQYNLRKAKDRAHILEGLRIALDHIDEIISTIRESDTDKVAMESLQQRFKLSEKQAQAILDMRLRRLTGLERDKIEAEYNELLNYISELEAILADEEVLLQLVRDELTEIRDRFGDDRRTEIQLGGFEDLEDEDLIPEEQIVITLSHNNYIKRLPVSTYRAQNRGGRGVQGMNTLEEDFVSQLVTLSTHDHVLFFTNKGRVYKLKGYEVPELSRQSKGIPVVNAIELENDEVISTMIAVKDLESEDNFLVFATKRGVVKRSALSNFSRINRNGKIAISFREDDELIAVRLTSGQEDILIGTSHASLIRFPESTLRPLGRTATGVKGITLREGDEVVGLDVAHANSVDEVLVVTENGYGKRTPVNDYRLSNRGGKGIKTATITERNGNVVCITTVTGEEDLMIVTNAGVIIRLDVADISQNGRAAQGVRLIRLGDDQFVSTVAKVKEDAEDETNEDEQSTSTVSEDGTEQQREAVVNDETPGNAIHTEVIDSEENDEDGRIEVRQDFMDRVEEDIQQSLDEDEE
T2 sequence (P0A0K8 whole entry): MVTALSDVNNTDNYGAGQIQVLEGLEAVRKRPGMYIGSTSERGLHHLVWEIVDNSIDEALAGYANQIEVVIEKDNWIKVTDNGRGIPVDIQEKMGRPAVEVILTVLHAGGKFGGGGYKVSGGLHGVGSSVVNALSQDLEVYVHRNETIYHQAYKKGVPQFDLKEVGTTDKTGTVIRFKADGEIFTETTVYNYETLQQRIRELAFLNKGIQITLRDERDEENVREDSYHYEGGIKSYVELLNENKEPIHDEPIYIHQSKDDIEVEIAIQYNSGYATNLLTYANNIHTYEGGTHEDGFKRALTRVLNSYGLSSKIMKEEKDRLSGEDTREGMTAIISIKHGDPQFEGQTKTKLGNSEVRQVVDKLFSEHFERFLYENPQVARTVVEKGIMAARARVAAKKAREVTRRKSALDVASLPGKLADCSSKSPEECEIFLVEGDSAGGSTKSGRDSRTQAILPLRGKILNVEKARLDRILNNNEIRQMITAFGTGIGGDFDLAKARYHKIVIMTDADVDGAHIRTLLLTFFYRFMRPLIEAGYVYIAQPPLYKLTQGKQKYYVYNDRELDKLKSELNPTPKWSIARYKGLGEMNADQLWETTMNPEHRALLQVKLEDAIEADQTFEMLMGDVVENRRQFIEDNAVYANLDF

| SMILES | MIC (S. aureus 514) [µg/mL] | MIC (S. aureus 522) [µg/mL] | MIC (S. epidermidis 431) [µg/mL] | MIC (S. aureus ATCC 29213) [µg/mL] | MIC (S. aureus ATCC 6538) [µg/mL] | IC50 [1] [µM] | IC50 [2] [µM] | IC50 [3] [µM] | MIC (S. aureus 495) [µg/mL] | MIC (S. aureus 568) [µg/mL] | MIC (S. aureus 537) [µg/mL] | MIC [4] [µg/mL] | MIC (S. epidermidis 438) [µg/mL] | MIC (S. epidermidis 437) [µg/mL] | MIC (S. aureus ATCC 25923) [µg/mL] | MIC (S. epidermidis 471) [µg/mL] | MIC (S. epidermidis 424) [µg/mL] | Genotoxic activity, inhibition zone diameter, H17 [6] [mm] | Genotoxic activity, inhibition zone diameter, M45 [7] [mm] | MIC (E. coli ATCC 25922) [µg/mL] | further results |
| --- | --- | --- | --- | --- | --- | --- | --- | --- | --- | --- | --- | --- | --- | --- | --- | --- | --- | --- | --- | --- | --- |
| CC(NC(=S)[N-]c1cccc(C(F)(F)F)c1)c1ccccc1.CC(NC(=S)[N-]c1cccc(C(F)(F)F)c1)c1ccccc1.[Cu+2] (racemic) [Cu2, Copper(II) Complex with 1-(1-phenylethyl)-3-[3-(trifluoromethyl)phenyl]thiourea] | 16 | 16 | 16 | 32 | 32 | 41.6 ± 4.3 | 89.7 ± 1.9 | 23.3 | 16 | 8 | 8 | 16 | 16 | 16 | 32 | 16 | 16 | 16 | 16 | ≥256 | MIC level against hospital staphylococcal strains [5]: 8 to 128 µg/mL; MIC (S. epidermidis 423): 16 µg/mL |
| FC(F)(F)c1cccc([N-]C(=S)NCCc2ccccc2)c1.FC(F)(F)c1cccc([N-]C(=S)NCCc2ccccc2)c1.O.[Cu+2] [Cu1, Copper(II) Complex with 1-(2-phenylethyl)-3-[3-(trifluoromethyl)phenyl]thiourea] | 64 | 64 | 128 | 64 | 64 | 68.7 ± 3.4 | 100 ± 3.6 | 62.6 ± 4.9 | 64 | 64 | 64 | 64 | 128 | 64 | 64 | 64 | 128 | 16 | 16 | ≥256 | MIC level against hospital staphylococcal strains [5]: 8 to 128 µg/mL; MIC (S. epidermidis 423): 64 µg/mL |
| FC(F)(F)c1cccc([N-]C(=S)NCc2ccccc2)c1.FC(F)(F)c1cccc([N-]C(=S)NCc2ccccc2)c1.[Cu+2] [Cu3, Copper(II) Complex with 1-benzyl-3-[3-(trifluoromethyl)phenyl]thiourea] | 64 | 64 | 64 | 64 | 64 | 38.3 ± 3.1 | 49.4 ± 2.4 | 44.8 ± 5.6 | 64 | 64 | 64 | 64 | 64 | 64 | 64 | 64 | 64 | 15 | 15 | ≥256 | MIC level against hospital staphylococcal strains [5]: 8 to 128 µg/mL; MIC (S. epidermidis 423): 64 µg/mL |
| FC(F)(F)c1cccc([N-]C(=S)Nc2cccc(Br)c2)c1.FC(F)(F)c1cccc([N-]C(=S)Nc2cccc(Br)c2)c1.[Cu+2] [Cu4, Copper(II) Complex with 1-(3-bromophenyl)-3-[3-(trifluoromethyl)phenyl] thiourea] | 8 | 8 | 8 | 8 | 4 | 89.8 ± 2.6 | 70.1 ± 5.3 | 69.1 ± 1.8 | 8 | 8 | 8 | 8 | 8 | 8 | 8 | 8 | 8 | 15 | 17 | 128 | MIC, staphylococcal isolates (staphylococcal isolates): 8 µg/mL; MIC level against hospital staphylococcal strains [5]: 8 to 128 µg/mL; MIC (S. epidermidis 423): 8 µg/mL |
| O.O=[N+]([O-])c1cc(NC(=S)[N-]c2cccc(C(F)(F)F)c2)ccc1Cl.O=[N+]([O-])c1cc(NC(=S)[N-]c2cccc(C(F)(F)F)c2)ccc1Cl.[Cu+2] [Cu5, Copper(II) Complex with 1-(4-chloro-3-nitrophenyl)-3-[3-(trifluoromethyl)phenyl]thiourea] | 2 | 2 | 2 | 4 | 4 | 14.8 ± 1.2 | 11.7 ± 0.9 | 19.5 ± 1.3 | 2 | 2 | 4 | 4 | 2 | 2 | 4 | 4 | 4 | 18 | 17 | 128 | MIC, staphylococcal isolates (staphylococcal isolates): 4 µg/mL; IC50 ± S.E.M. for Topo IV [8]: 6.20 ± 0.50 µg/mL; MIC, methicillin-resistant Staphylococci ([5]; 19 strains (above half) of tested hospital Staphylococci): 2 µg/mL; MIC, methicillin-resistant Staphylococci ([5]; S. aureus 537, 585, and 586 strains and half of the S. epidermidis isolates): 4 µg/mL; IC50 ± S.E.M. for Gyrase (S. aureus DNA gyrase): 16.80 ± 0.75 µg/mL; MIC (S. epidermidis 423): 4 µg/mL; IC50 (SW480, SW620, and PC3): 11.7 to 19.5 µM |
